The source of these data is patent publication US6924314B2, “Compounds for the treatment of metabolic disorders” (Wellstat Therapeutics Corporation, priority 2001, dated 2005).

Test [1] relates to db/db mice. The experiment in a line: Antidiabetic effects in db/db mice, four weeks of daily oral dosing. It counts as in vivo. The note with it: 100 mg/kg daily oral, four weeks. From the text:
Db/db mice have a defect in leptin signaling, leading to hyperphagia, obesity and diabetes. Moreover, unlike ob/ob mice which have relatively robust islets, their insulin-producing pancreatic islet cells undergo failure during chronic hyperglycemia, so that they transition from hyperinsulinemia (associated with peripheral insulin resistance) to hypoinsulinemic diabetes.
Male db/db mice were given daily oral treatments with vehicle (0.75% hydroxypropylmethylcellulose) or antidiabetic compounds as indicated below. Blood samples were obtained via the retro-orbital sinus for serum chemistry analysis, or via the tail vein for glucose measurement with a test strip and glucometer.
The dose of pioglitazone used in this experiment was reported in the literature to be a maximally-effective dose for treatment of db/db mice (Shimaya et al. (2000), Metabolism 49:411-7).

The test system of test [2] is mice with lethal insulin-dependent diabetes. The experiment in a line: Survival of mice with lethal insulin-dependent diabetes (single dose streptozotocin). The note with it: 30 mg/kg/day oral gavage. The class given is in vivo, Balb/C mice. As for the experimental part:
Female Balb/C mice (14 weeks old) were treated with a single dose of streptozotocin (175 mg/kg i.p.) to induce severe insulin-dependent diabetes. Seven days later, mice were divided into three treatment groups: Compound AH, pioglitazone, and vehicle. Mice were treated daily via oral gavage, and survival was monitored over time.

The subject of another test is ob/ob mice. Put plainly: Hyperglycemia, hyperlipidemia, fatty liver disease and weight gain in ob/ob obese diabetic mice, daily oral dosing. Particulars: for Free Fatty Acids ± SEM / Glucose ± SEM / Triglycerides ± SEM / ALT (U/L) ± SEM / AST (U/L) ± SEM / SDH (U/L) ± SEM: 4 weeks; for Mean body weight gain (grams): four week treatment period; for ALT (U/L) ± SEM / AST (U/L) ± SEM / SDH (U/L) ± SEM: serum. It counts as in vivo, C57BL/6 mice. From the text: Ob/ob mice have a defect in the gene for leptin, a protein involved in appetite regulation and energy metabolism, and are hyperphagic, obese, and insulin resistant. They develop hyperglycemia and fatty liver.

For test [3], the system named is ob/ob obese diabetic mice. Put plainly: Acute hypoglycemic effect in ob/ob obese diabetic mice: Experiment 1. It counts as in vivo. Particulars: single oral dose by gavage, 6 hours. As for the experimental part: Male ob/ob diabetic mice were randomized into groups of five animals each. Body weights were 50-55 g and blood glucose was approximately 300 mg/dL in the fed state. A single oral dose of a test substance suspended in 0.5% carboxymethylcellulose vehicle was administered by gavage. Blood glucose was measured in blood droplets obtained by nicking a tail vein with a razor using glucometer test strips and a Glucometer Elite XL device (Bayer) at 0, 0.5, 2, 4, 6 and 18 hours after the initial dosing. A 10% reduction in blood glucose versus oral vehicle is considered a positive screening result. Blood glucose reductions were generally maximal at 6 hours after drug administration.

Test [4] relates to mice with severe insulin-dependent diabetes. The experiment in a line: Mortality in severe insulin-dependent diabetes (multiple high doses of STZ). The class given is in vivo. Particulars: STZ 75 mg/kg i.p. x5 balb/C mice, 30 mg/kg/day oral, after three weeks of daily treatment. As for the experimental part: Female balb/C mice (19 wks of age at start of experiment) were challenged with multiple high doses of STZ (75 mg/kg i.p. on 5 consecutive days). Animals were then divided in two groups (20 mice/group) matched for severity of diabetes. Four days after the last dose of STZ, treatments were initiated. One group received Vehicle (0.4 ml of 0.75% HPMC, p.o.), and the other group received oral COMPOUND AA (30 mg/kg/day). After three weeks of daily treatment, cumulative mortality in the Vehicle Control group was 19/20 mice. In contrast, only 5/20 of the COMPOUND AA mice died during this time.

For test [5], the system named is high fat-fed C57Bl/6J mice. The experiment in a line: Circulating triglycerides, free fatty acids, insulin and leptin in high fat-fed C57Bl/6J mice. The class given is in vivo. Particulars: for Free Fatty Acids / Triglycerides: after 2 weeks of drug treatments. From the text: The high fat-fed mouse is a model for the hypertriglyceridemia and high circulating fatty acid levels, and the insulin and leptin resistance that are found in people at risk for and with obesity, diabetes, cardiovascular disease and other disorders. Male C57Bl/6J mice, approximately 8 weeks of age, were randomly assigned into groups of 6 animals. […] Mice were fed a high-fat diet (diet number D12451, containing 45% of calories as fat (Research Diets, New Brunswick, N.J.)) for 6 weeks. […]

Test [6] has as its system Zucker Diabetic Fatty (ZDF) rats. The experiment in a line: Attenuation of cataractogenesis in Zucker Diabetic Fatty (ZDF) rats. The class given is in vivo. Particulars: 100 mg/kg daily oral, 10 weeks. From the text:
Cataracts are one of the leading causes of progressive vision decline and blindness associated with ageing and diabetes, and the Zucker diabetic fatty (ZDF) model has many similarities with human cataractogenesis, including biochemical changes and oxidative stress in the lens. These rats, however, undergo cataractogenesis typically between 14-16 weeks of age.
Male ZDF rats and their aged-match Zucker lean (ZL) counterparts (fa/+ or +/+) were obtained from Genetic Models, Inc. (Indianapolis, Ind.) aged 12 weeks and acclimatized for 1 week prior to study. […] Treatment cohorts were given a daily oral dose of vehicle and 100 mg/kg of BI or BH for 10 weeks. […] At the end of the treatment period 100 μl of venous blood was collected (usually 10:00 A.M.) in a heparinized tube from the tail vein for serum chemistry analysis (Anilytics, Inc., Gaithersburg, Md.). […] Plasma insulin was measured by an electrochemiluminescent immunoassay, ECL (Origen Analyzer, Igen, Inc., Gaithersburg, Md.). The animals were sacrificed and tissues and/or organs (lens and liver) were extirpated, weighed (wet weight) and processed for biochemical analyses. Malondialdehyde (MDA), a major product of lipid peroxidation was assayed in lenses according to Ohkawa et al (1979), Analytical Biochem 95, 351-358).

The subject of test [7] is db/db mice. Put plainly: Antidiabetic effects in db/db mice, 2 weeks (Example I). It counts as in vivo, C57BL/Ksola mice. Particulars: for Glucose / Glucose (% of Control): nonfasting; for Free Fatty Acids ± SEM / Triglycerides ± SEM: serum. From the text: db/db mice have a defect in leptin signaling, leading to hyperphagia, obesity and diabetes. Moreover, unlike ob/ob mice on a C57BL/6J background, db/db mice on a C57BL/KS background undergo failure of their insulin-producing pancreatic islet β cells, resulting in progression from hyperinsulinemia (associated with peripheral insulin resistance) to hypoinsulinemic diabetes.
(§1) A minimum of 7 days was allowed for adaptation after arrival.
Treatment cohorts were given daily oral doses of (1% hydroxypropylmethylcellulose), Compounds BI, BO, BP, BQ or BR for 2 weeks. At the end of the treatment period 100 μl of venous blood was withdrawn in a heparinized capillary tube from the retro-orbital sinus of db/db mice for serum chemistry analysis.

The subject of test [8] is db/db mice. The experiment in a line: Antidiabetic effects in db/db mice, second experiment, 8 weeks of treatment. The class given is in vivo. From the text:
Blood samples were obtained via the retro-orbital sinus for serum chemistry analysis, or via the tail vein for glucose measurement with a test strip and glucometer.
Groups consisted of 6-8 mice each.

For test [9], the system named is db/db mice. The experiment in a line: Antidiabetic effects in db/db mice, 2 weeks (Example J). It counts as in vivo, C57BL/Ksola mice.
Excerpt: db/db mice have a defect in leptin signaling, leading to hyperphagia, obesity and diabetes. Moreover, unlike ob/ob mice on a C57BL/6J background, db/db mice on a C57BL/KS background undergo failure of their insulin-producing pancreatic islet cells, resulting in progression from hyperinsulinemia (associated with peripheral insulin resistance) to hypoinsulinemic diabetes.
as §1
Treatment cohorts were given daily oral doses of Vehicle (1% hydroxypropylmethylcellulose), Compounds BI, BS, BT, BU, BV or Fenofibrate for 2 weeks. At the end of the treatment period 100 μl of venous blood was withdrawn in a heparinized capillary tube from the retro-orbital sinus of db/db mice for serum chemistry analysis.

Setting [10] is: 150 mg/kg, 8 weeks of treatment.
Where [11] appears, read: nonfasting, 100 mg/kg daily oral.
[12] abbreviates: serum, daily oral, dose per Table 12: 100 mg/kg.

As for `CCc1ccc(CCOc2ccc(CC3SC(=O)NC3=O)cc2)nc1` (stereo not drawn) [Pioglitazone, pioglitazone, reference compound], in the test on db/db mice [1], the “Glucose” value is 558 ± 28 mg/dL and the “Glucose (% of Control)” value was 99 ± 5 % of Control. Moreover, the “body weight lost by survivors at 12 weeks” value in test [2] is on record as 15-20%. The “Survivors (Survival at 12 weeks)” value in [2] (STZ 175 mg/kg i.p. Balb/C mice) is 2/5. For the same compound, in the test on ob/ob mice (30 mg/kg/day oral), the “Free Fatty Acids ± SEM” value was 2606 ± 139.2 µmol/L, the “Glucose ± SEM” value is on record as 188.2 ± 21.4 mg/dL, the “Triglycerides ± SEM” value stood at 111.2 ± 7.5 mg/dL and the “ALT (U/L) ± SEM” value is listed as 713.6 ± 80.6 U/L. For the same compound, in the test with ob/ob mice (30 mg/kg/day oral), the “AST (U/L) ± SEM” value was 1024 ± 88.7 U/L and the “SDH (U/L) ± SEM” value was found to be 782.0 ± 70.6 U/L. Besides, the “Mean body weight gain (grams)” value with ob/ob mice (30 mg/kg/day) was “+10.0 grams”. For the same compound, in the test with ob/ob mice (100 mg/kg/day oral), the “Free Fatty Acids ± SEM” value worked out at 1983.4 ± 66.1 µmol/L, the “Glucose ± SEM” value was 174.6 ± 11.5 mg/dL, the “Triglycerides ± SEM” value is reported as 95.2 ± 4.8 mg/dL and the “ALT (U/L) ± SEM” value is listed as 646.0 ± 56.1 U/L. Moreover, in the test with ob/ob mice (100 mg/kg/day oral), the “AST (U/L) ± SEM” value is 901.0 ± 49.3 U/L and the “SDH (U/L) ± SEM” value is given as 603.0 ± 27.3 U/L. In addition, the “Mean body weight gain (grams)” value in the test on ob/ob mice (100 mg/kg/day) is “+13.6 grams”.
Regarding `O=C(O)CCC(=O)c1ccc(OCc2ccccc2F)cc1` [Compound AA, 4-(4-(2-Fluorobenzyloxy)phenyl)-4-oxobutyric acid], in test [3], the “% Reduction vs Control” value is listed as −18.5 ± 8.4% and the “Blood Glucose after 6 hours” value stood at 242 ± 25 mg/dL. The cumulative mortality in test [4] was 5/20.
As for `Cc1cccc(C)c1COc1cccc(C(=O)CCC(=O)O)c1` [Compound BI, 4-(3-(2,6-Dimethylbenzyloxy)phenyl)-4-oxobutyric acid], in test [5] (10 mg/kg oral gavage), the “Free Fatty Acids” value is 1227 ± 193.7 µmol/L and the Triglycerides was found to be 68.8 ± 5.7 mg/dL. Besides, in test [5] (30 mg/kg oral gavage), the “Free Fatty Acids” value worked out at 1292 ± 231.4 µmol/L and the Triglycerides was 66.5 ± 14.7 mg/dL. Also, in [5] (100 mg/kg oral gavage), the “Free Fatty Acids” value was 992.8 ± 172.1 µmol/L and the Triglycerides is reported as 37.4 ± 8.3 mg/dL. In addition, in test [5] (oral gavage), the “serum triglycerides and free fatty acids” value is recorded as “effective at lowering”. Further, the insulin serum levels result in test [5] (oral gavage, after 4 weeks of drug treatments (FIG. 1)) is given as “effective at lowering”. The leptin serum levels entry in test [5] (oral gavage, after 4 weeks of drug treatments (FIG. 2)) is recorded as “effective at lowering”. Besides, in test [6], the “% Protection Left Eye” value is reported as 50%, the “% Protection Right Eye” value stood at 83%, the “Cataract Formation Left Eye” value is listed as 3/6 and the “Cataract Formation Right Eye” value is given as 1/6. Moreover, in [6] (means ± SEM), the “Lenticular MDA” value amounted to 0.8 ± 0.1 nmol/g lens, the “Size (mm) Left Lens” value is 3.4 ± 0.2 mm, the “Size (mm) Right Lens” value came out at 3.8 ± 0.1 mm and the “Weight (mg) Left Lens” value is 38.1 ± 7.3 mg. Besides, in test [6] (means ± SEM), the “Weight (mg) Right Lens” value is recorded as 54.9 ± 1.2 mg. For the same compound, in the test with db/db mice [7] (100 mg/kg daily oral), the “Glucose” value is recorded as 423 ± 53 mg/dL, the “Glucose (% of Control)” value is listed as 67 ± 8 % of Control, the “Free Fatty Acids ± SEM” value was 2999.9 ± 98.7 µM and the “Triglycerides ± SEM” value turned out to be 134.0 ± 13.1 mg/dL. Besides, in the test on db/db mice [7] (150 mg/kg daily oral), the “Glucose” value was found to be 279 ± 35 mg/dL, the “Glucose (% of Control)” value is listed as 44 ± 6 % of Control, the “Free Fatty Acids ± SEM” value was determined as 2234.0 ± 162.6 µM and the “Triglycerides ± SEM” value amounted to 103.6 ± 8.3 mg/dL. In the test on db/db mice [8] (setting [10]), this compound came in with a Glucose of 254 ± 30 mg/dL and a Triglycerides of 99 ± 8 mg/dL. Further, in the test on db/db mice [8] (after 8 weeks of treatment), the “blood glucose and triglycerides compared to vehicle-treated controls” value is “significantly lower”. For the same compound, in the test with db/db mice [9] (setting [11]), the “Glucose” value was determined as 347.0 ± 43.1 mg/dL and the “Glucose (% of Control)” value is 50 ± 6 % of Control. Also, in the test with db/db mice [9] (setting [12]), the “Free Fatty Acids ± SEM” value turned out to be 1997.2 ± 196.4 µM and the “Triglycerides ± SEM” value amounted to 77.8 ± 5.3 mg/dL.
